# Reference: patent US20260138970A1, “MODULATORS OF THE CALCIUM SIGNALING CASCADE” (FONDAZIONE TELETHON ETS, priority 2022, published 2026)
# What was measured:
# Type in all cases: cell-based
# ITPR3 = biological target: T1, ITPR3 (Homo sapiens, UniProt Q14573); test: Fluo-4 Ca2+ assay, UTP, HEK293 cells with selective expression of ITPR3 (HEKR3); conditions: compounds 10 μM; UTP 5 μM; FIG. 2C
# T1 construct: host or cells: HEKR3 (HEK293)
# Description: (§1) HEK293 cells totally devoid of ITPR expression (HEK3XKO) or with selective expression of ITPR1 (HEKR1), ITPR2 (HEKR2), or ITPR3 (HEKR3), obtained by selective gene ablation, were purchased from Kerafast (catalog number: EURO30, EURO31, EURO32, EURO33) and cultured in a mixture of Dulbecco's Modified Eagle Medium (DMEM, high glucose version) and Ham's F12 (1:1) and supplemented with 10% fetal bovine serum, 2 mM L-glutamine, 100 U/ml penicillin and 100 μg/ml streptomycin.
# (§2) Experiments were performed using the microplate reader described for the HS-YFP assay. FRT and HEK293 cells were cultured until confluence in 96-well microplates (3603, Corning). Cells were washed 2 times with PBS (150 μl/wash) and then loaded for 1 h at 37° C. with 5 μM Fluo-4/AM (Thermo Fisher Scientific; catalog number: F23917) in PBS containing 10 mM glucose, 0.5 mM sulfinpyrazone, and 1% fetal bovine serum. After loading, cells were washed 2 times with PBS-glucose-sulfinpyrazone (150 μl/wash) and incubated for 20 min at 37° C. with 60 μl of PBS plus 10 mM glucose and 0.5 mM sulfinpyrazone containing compounds of interest at 10 μM final concentration or vehicle. Each well was assayed individually. Fluo-4 fluorescence (500 nm excitation, 535 nm emission) was detected every 200 ms for 16-40 s. Two seconds after the start of fluorescence recording, the reader automatically injected 165 μl of a modified PBS containing 136 mM KCl instead of NaCl. This solution also contained 10 mM glucose, 0.5 mM sulfinpyrazone, and UTP or SLIGR-NH2 (CAS #171436-38-7) at a final concentration that depended on the specific cell type. For UTP we used: 0.25 μM for FRT; 1 μM for HEKR2; 5 μM for HEK3XKO, HEKR1, and HEKR3. For SLIGR-NH2 we used: 10 μM for HEKR1; 4 μM for HEKR2. These concentrations were chosen to elicit ˜20% of maximal effect based on UTP and SLIGR-NH2 dose-response relationships. […] The Fluo-4 fluorescence increase was quantified using a procedure compiled in Microsoft Excel after background subtraction and normalization for the initial value measured before UTP addition.
# R269W ITPR1 = biological target: T2, R269W ITPR1 (Homo sapiens, UniProt Q14643, R269W); test: Fluo-4 Ca2+ assay, UTP, HEK293 cells with inducible R269W ITPR1; conditions: UTP 5 μM; compound 10 μM; tetracycline-induced; FIG. 6B-C
# T2 construct: expressed in transfected cells
# Description: (§3) HEK293 cells stably transfected with tetracycline-inducible expression of wild type or mutant (R269W or T267M) ITPR1, kindly provided by Prof. S. R. Wayne Chen (University of Calgary; ref. 14), were cultured in a mixture of Dulbecco's Modified Eagle Medium (DMEM, high glucose version) and Ham's F12 (1:1) and supplemented with 10% fetal bovine serum, 2 mM L-glutamine, 100 U/ml penicillin and 100 μg/ml streptomycin. Cells were selected with 0.5 mg/ml hygromycin B and induced with 1 μg/ml tetracycline.
# as §2
# [1] = tested on: protease-activated receptors; test: Fluo-4 Ca2+ assay, SLIGR-NH2 stimulus, HEKR1 cells; conditions: SLIGR-NH2 10 μM; compounds 10 μM; FIG. 5C top
# Description: Experiments were performed using the microplate reader described for the HS-YFP assay. FRT and HEK293 cells were cultured until confluence in 96-well microplates (3603, Corning). Cells were washed 2 times with PBS (150 μl/wash) and then loaded for 1 h at 37° C. with 5 μM Fluo-4/AM (Thermo Fisher Scientific; catalog number: F23917) in PBS containing 10 mM glucose, 0.5 mM sulfinpyrazone, and 1% fetal bovine serum. After loading, cells were washed 2 times with PBS-glucose-sulfinpyrazone (150 μl/wash) and incubated for 20 min at 37° C. with 60 μl of PBS plus 10 mM glucose and 0.5 mM sulfinpyrazone containing compounds of interest at 10 μM final concentration or vehicle. Each well was assayed individually. Fluo-4 fluorescence (500 nm excitation, 535 nm emission) was detected every 200 ms for 16-40 s. Two seconds after the start of fluorescence recording, the reader automatically injected 165 μl of a modified PBS containing 136 mM KCl instead of NaCl. This solution also contained 10 mM glucose, 0.5 mM sulfinpyrazone, and UTP or SLIGR-NH2 (CAS #171436-38-7) at a final concentration that depended on the specific cell type. For UTP we used: 0.25 μM for FRT; 1 μM for HEKR2; 5 μM for HEK3XKO, HEKR1, and HEKR3. For SLIGR-NH2 we used: 10 μM for HEKR1; 4 μM for HEKR2. These concentrations were chosen to elicit ˜20% of maximal effect based on UTP and SLIGR-NH2 dose-response relationships. The lower agonist concentrations used for HEKR2 cells, compared to HEKR1 cells, are consistent with the higher affinity of ITPR2 for IP3 (16). The Fluo-4 fluorescence increase was quantified using a procedure compiled in Microsoft Excel after background subtraction and normalization for the initial value measured before UTP addition.
# ITPR1 = ITPR1 (Homo sapiens, UniProt Q14643); test: Fluo-4 Ca2+ assay, UTP, HEK293 cells with selective expression of ITPR1 (HEKR1); parameters: host or cells: HEKR1 (HEK293); conditions: compounds 10 μM; UTP 5 μM; FIG. 2C
# Description: as §1, §2
# TMEM16A = test: Short-circuit current recordings on FRT epithelia with stable expression of TMEM16A; conditions: compounds 10 μM; UTP 0.25 μM apical; vs vehicle; FIG. 1C
# Description: Snapwell supports (3801, Corning) carrying FRT and differentiated HBEC epithelia were mounted in a vertical chamber resembling an Ussing system with internal fluid circulation (EM-CSYS-8, Physiologic Instruments, San Diego, CA, USA). For FRT epithelia, the apical and basolateral hemichambers were filled with solutions of different composition. The apical solution (5 ml) contained (in mM): 63 NaCl, 63 sodium gluconate, 0.38 KH2PO4, 2.13 K2HPO4, 2 CaCl2, 1 MgSO4, 20 Na-Hepes (pH 7.3), and 10 glucose. The basolateral solution (5 ml) instead contained (in mM): 126 KCl, 0.38 KH2PO4, 2.13 K2HPO4, 1 CaCl2, 1 MgSO4, 20 Na-Hepes (pH 7.3), and 10 glucose. Both solutions were continuously bubbled with air and the temperature of the solution was kept at 37° C. For HBECs, the same (bicarbonate-buffered) solution was used in both chambers. The composition of this solution was (in mM): 126 NaCl, 0.38 KH2PO4, 2.13 K2HPO4, 1 MgSO4, 1 CaCl2), 24 NaHCO3, and 10 glucose. Both sides were continuously bubbled with a gas mixture containing 5% CO2 and 95% air. The temperature of the solution was kept at 37° C. throughout the experiment.
# Transepithelial voltage was short-circuited with a voltage-clamp (VCC MC8, Physiologic Instruments, San Diego, CA, USA) connected to the apical and basolateral chambers via Ag—AgCl electrodes and agar bridges (2% agar in 1 M KCl). The offset between voltage electrodes and the fluid resistance were cancelled before experiments. The resulting short-circuited current from each channel was recorded on a personal computer with the Acquire & Analize 2.3 software (Physiologic Instruments, San Diego, CA, USA).
# T267M ITPR1 = biological target: T3, T267M ITPR1 (Homo sapiens, UniProt Q14643, T267M); test: Fluo-4 Ca2+ assay, UTP, HEK293 cells with inducible T267M ITPR1; conditions: UTP 5 μM; compound 10 μM; tetracycline-induced; FIG. 6B-C
# T3 construct: expressed in transfected cells
# Description: as §3, §2
# T2 sequence (Q14643 whole entry R269W): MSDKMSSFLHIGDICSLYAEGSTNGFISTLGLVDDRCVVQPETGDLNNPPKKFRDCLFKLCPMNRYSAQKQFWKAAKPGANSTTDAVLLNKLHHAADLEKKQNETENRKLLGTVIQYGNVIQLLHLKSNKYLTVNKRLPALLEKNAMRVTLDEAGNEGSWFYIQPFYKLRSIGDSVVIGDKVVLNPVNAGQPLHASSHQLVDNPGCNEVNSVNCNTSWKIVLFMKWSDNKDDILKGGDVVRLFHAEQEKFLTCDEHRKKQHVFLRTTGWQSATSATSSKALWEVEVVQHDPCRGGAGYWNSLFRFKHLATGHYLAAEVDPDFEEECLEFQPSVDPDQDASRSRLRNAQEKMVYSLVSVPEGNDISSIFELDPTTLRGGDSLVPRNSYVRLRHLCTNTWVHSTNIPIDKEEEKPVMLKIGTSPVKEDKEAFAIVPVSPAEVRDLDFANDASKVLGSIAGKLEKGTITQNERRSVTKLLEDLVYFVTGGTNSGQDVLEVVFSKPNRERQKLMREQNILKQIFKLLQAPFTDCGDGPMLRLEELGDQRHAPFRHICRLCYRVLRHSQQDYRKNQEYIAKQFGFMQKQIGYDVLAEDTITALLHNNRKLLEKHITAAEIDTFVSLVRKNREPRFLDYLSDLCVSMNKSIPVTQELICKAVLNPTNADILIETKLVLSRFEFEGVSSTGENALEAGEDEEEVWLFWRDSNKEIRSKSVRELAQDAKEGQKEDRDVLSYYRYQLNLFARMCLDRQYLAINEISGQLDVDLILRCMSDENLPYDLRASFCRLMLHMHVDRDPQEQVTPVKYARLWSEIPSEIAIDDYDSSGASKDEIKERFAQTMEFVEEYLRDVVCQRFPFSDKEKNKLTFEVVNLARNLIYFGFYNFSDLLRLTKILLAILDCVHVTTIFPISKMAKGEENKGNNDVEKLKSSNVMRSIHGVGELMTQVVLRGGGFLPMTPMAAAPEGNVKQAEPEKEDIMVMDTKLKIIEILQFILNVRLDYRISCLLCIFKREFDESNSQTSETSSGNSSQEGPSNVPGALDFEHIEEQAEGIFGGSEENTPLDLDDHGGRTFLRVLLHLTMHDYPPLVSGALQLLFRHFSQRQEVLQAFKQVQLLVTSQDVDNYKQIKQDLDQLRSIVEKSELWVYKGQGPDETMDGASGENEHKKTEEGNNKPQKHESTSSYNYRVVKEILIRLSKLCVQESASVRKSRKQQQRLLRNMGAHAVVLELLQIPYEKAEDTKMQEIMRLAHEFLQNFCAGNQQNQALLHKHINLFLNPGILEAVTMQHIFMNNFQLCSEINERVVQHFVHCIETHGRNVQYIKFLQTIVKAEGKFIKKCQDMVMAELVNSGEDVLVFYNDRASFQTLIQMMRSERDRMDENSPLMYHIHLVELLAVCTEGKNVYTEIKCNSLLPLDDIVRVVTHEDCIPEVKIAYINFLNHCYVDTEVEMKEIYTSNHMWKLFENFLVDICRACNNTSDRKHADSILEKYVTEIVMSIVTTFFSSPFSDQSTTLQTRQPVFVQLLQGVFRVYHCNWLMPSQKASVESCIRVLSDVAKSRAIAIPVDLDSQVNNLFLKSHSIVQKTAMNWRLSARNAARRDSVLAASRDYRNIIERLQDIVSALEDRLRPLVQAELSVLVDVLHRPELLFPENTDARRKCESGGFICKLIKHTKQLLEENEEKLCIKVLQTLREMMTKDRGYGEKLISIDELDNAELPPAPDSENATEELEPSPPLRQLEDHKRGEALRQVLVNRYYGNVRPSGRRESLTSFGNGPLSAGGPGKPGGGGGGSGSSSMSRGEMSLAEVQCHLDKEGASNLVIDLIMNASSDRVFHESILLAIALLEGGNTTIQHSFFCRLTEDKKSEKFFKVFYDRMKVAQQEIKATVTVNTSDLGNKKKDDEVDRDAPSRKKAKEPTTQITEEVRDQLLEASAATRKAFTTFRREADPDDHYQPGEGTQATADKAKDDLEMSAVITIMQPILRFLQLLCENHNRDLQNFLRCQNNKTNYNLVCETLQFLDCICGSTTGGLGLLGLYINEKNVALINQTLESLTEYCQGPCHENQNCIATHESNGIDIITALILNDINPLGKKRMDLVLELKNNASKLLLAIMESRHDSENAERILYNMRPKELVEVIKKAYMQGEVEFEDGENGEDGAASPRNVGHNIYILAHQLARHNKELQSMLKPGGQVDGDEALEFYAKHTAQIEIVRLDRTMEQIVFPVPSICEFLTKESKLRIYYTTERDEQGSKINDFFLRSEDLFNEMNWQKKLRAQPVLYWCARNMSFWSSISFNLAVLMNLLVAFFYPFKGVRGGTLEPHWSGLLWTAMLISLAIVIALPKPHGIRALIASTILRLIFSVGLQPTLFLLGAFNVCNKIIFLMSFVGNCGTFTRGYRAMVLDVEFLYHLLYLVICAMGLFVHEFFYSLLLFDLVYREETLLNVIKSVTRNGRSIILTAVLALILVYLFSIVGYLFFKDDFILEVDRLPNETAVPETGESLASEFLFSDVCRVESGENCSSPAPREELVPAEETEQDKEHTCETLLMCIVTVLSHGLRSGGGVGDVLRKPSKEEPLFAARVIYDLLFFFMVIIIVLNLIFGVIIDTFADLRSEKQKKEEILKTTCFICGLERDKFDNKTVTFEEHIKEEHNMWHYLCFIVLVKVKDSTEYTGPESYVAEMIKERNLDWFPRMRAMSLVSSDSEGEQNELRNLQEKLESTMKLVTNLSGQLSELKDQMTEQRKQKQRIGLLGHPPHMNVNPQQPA
Structure (SMILES),"potentiation of UTP-elicited Ca2+ increase, ITPR3-only cells (ITPR3)","potentiation of Ca2+ mobilization elicited by UTP, R269W mutant (R269W ITPR1)","potentiation of SLIGR-NH2 stimulus (Ca2+ mobilization), HEKR1 cells [1]","potentiation of UTP-elicited Ca2+ increase, ITPR1-only cells (ITPR1)",peak of Cl- current elicited by UTP (short-circuit current) (TMEM16A),"potentiation of Ca2+ mobilization elicited by UTP, T267M mutant (T267M ITPR1)"
"OCc1ccccc1CN(Cc1ccnc(N2CCCC2)n1)c1ccc(F)cc1 [ARN4550, [2-[[4-Fluoro-N-[(2-pyrrolidin-1-ylpyrimidin-4-yl)methyl]anilino]methyl]phenyl]methanol]",always effective,also effective although less than ARN11391,effective as potentiators,always effective,significantly enhanced,also effective although less than ARN11391
"CCc1cc(-c2cc(NCCCOc3ccccc3C)nc(N)n2)n(C)n1 [ARN7149, 6-(3-Ethyl-1-methyl-1H-pyrazol-5-yl)-N^4-(3-(o-tolyloxy)propyl)pyrimidine-2,4-diamine]",always effective,also effective although less than ARN11391,significant inhibition,always effective,significantly enhanced,also effective although less than ARN11391
"CCn1nc2c(c1C(=O)Nc1ccccc1OCC1CCCCO1)CCCC2 (stereo not drawn) [ARN11391, 2-Ethyl-N-[2-(tetrahydropyran-2-ylmethoxy)phenyl]-4,5,6,7-tetrahydroindazole-3-carboxamide]",only effective in cells with ITPR1,marked potentiation,effective as potentiators,effective,significantly enhanced,marked potentiation
